From publication PMC11509018, “Evaluation of the Role of Tanshinone I in an In Vitro System of Charcot-Marie-Tooth Disease Type 2N” (International Journal of Molecular Sciences, 2024)

Tests used:
AlaRS^N71Y = target: T1, AlaRS^N71Y (Homo sapiens, UniProt P49588, N71Y); experiment: Biolayer interferometry (BLI); format: binding; conditions: immobilized AlaRS^N71Y, mean ± SD, triplicate
T1 construct: made in house; host or cells: E. coli BL21 (DE3), pET-21a
T1 sequence (P49588 1-968 N71Y): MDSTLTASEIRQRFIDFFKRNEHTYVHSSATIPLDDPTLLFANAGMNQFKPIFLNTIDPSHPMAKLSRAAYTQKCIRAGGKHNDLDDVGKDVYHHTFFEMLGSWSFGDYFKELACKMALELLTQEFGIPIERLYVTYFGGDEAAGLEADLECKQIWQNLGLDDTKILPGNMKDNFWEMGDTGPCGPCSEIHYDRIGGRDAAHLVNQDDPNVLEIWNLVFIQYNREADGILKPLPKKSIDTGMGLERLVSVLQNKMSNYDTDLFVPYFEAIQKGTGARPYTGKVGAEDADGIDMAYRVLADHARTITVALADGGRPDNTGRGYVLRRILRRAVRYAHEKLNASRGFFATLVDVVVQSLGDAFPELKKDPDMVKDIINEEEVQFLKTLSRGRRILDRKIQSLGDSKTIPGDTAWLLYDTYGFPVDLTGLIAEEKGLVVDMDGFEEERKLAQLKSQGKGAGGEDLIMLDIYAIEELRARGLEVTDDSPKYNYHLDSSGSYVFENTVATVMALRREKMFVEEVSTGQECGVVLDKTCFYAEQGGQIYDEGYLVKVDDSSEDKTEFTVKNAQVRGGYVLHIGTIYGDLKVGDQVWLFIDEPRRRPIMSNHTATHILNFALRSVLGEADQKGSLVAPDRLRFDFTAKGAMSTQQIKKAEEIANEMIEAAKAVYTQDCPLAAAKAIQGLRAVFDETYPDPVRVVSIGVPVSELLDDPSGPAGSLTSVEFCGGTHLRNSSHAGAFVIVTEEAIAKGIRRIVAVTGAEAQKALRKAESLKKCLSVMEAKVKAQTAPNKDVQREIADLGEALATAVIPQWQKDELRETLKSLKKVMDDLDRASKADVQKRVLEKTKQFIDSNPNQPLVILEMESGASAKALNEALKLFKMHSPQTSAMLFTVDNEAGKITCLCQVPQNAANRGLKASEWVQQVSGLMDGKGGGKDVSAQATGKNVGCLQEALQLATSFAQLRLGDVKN
Method: Furthermore, we examined the interaction of Tanshinone I with additional AlaRS CMT mutants capable of binding to Nrp1 and causing conformational changes by BLI and proteolysis assays on additional related mutants. […] To further quantify the binding of small molecules to mutant proteins, binding experiments with AlaRS^R329H proteins and small molecules were conducted using an Octet R8 system (ForteBio, Fremont, CA, USA). Purified His-tagged AlaRS^R329H proteins (500 μg/mL) were captured on Ni-NTA biosensors (ForteBio, Fremont, CA, USA), achieving a saturation response of 4–5 nm after 300 s. The biosensors were then transferred to Octet buffer (PBS with 0.01% Tween 20) for 180 s to remove loosely bound, nonspecific proteins and to establish a stable baseline. Following this, the sensors were immersed in diluted Tanshinone I (2.5–100 μM in assay buffer) for 120 s to record the association signal, and then transferred back into Octet buffer to monitor the dissociation signal for 120 s. Reference wells containing buffer instead of Tanshinone I were included to correct for baseline shifts. Additionally, a parallel set of Ni-NTA sensors in buffer served as negative reference controls to account for nonspecific binding of the compounds to the biosensor surface. The data were processed using a double reference subtraction protocol to eliminate nonspecific signals, background noise, and signal drifts caused by biosensor variability. All assays were performed in 96-well black plates with a total volume of 200 μL per well at 30 °C. Data analysis, including correction and curve fitting, was carried out using Octet® Analysis Studio 12.2.2.26. The experiment was repeated three times.

[1] = target: T2, AlaRS N71Y binding to GST-Nrp1 b1 (Homo sapiens, UniProt P49588, N71Y); experiment: GST pull down assay; conditions: 20 µM Tanshinone I, ImageJ, average of three repeats
T2 construct: made in house; host or cells: E. coli BL21 (DE3), pET-21a for AlaRS
T2 sequence (P49588 1-968 N71Y): T1 sequence (P49588 1-968 N71Y)
Method: To further investigate whether Tanshinone I-induced conformational changes in AlaRS CMT mutants affect their interaction with Nrp1, Co-IP experiments were performed in cells treated with Tanshinone I. By comparing Co-IP results obtained before and after treatment, we assessed the influence of the drug on the binding strength and mode between the AlaRS CMT mutants and Nrp1. […] To confirm the direct effect of Tanshinone I on the interaction between AlaRS CMT mutants and Nrp1, pull-down experiments were performed. […] Given that the interaction between AlaRS mutants and Nrp1 is associated with disease progression in CMT, the ability of Tanshinone I to disrupt this binding highlights its potential to intervene in the pathogenic mechanisms of these diseases.
Figure 7 The impact of Tanshinone I on the interaction between AlaRS mutants and Nrp1. (A) Co-IP assays were conducted to assess the binding between HA-AlaRS mutants and Nrp1, both with and without treatment with 20 µM Tanshinone I for 24 h. […] (C) Pull down assay was performed to detect the binding between AlaRS mutants and GST-Nrp1 b1 with or without 20 µM Tanshinone I. (D) Relative quantification statistics of the AlaRS mutants pulled down from the GST pull down experiments after Tanshinone I treatment were performed using ImageJ. (E) The cell viability of 293T and NSC34 cells treated with different concentrations of Tanshinone I was assessed using the CCK-8 assay over a 24 h period. TEXT PRINTED IN THE PICTURE: (B) Tanshinone I: Mean density band (N71Y): 0.60; Mean density band (G102R): 0.53; Mean density band (R326W): 0.50; Mean density band (R329H): 0.50; Mean density band (E337K): 0.62 | (D) Tanshinone I: Mean density band (N71Y): 0.82; Mean density band (G102R): 0.76; Mean density band (R326W): 0.84; Mean density band (R329H): 0.84; Mean density band (E337K): 0.90
To detect the direct interactions between the mutant proteins and Nrp1 in vitro, we performed a Glutathione S-transferase (GST) pull-down assay. AlaRS mutants fused with 6 × His were purified with Ni-NTA beads, followed by chromatography on a HiTrap Q HP column. Nrp1 b1 fragments fused with GST were purified with Glutathione Beads (#SA008100, Smart-Lifesciences, Changzhou, China). For GST pull-down assays, 1000 μg of each GST-fused Nrp1 b1 fragment was mixed with 200 μg of 6 × His-tagged fusion protein in binding buffer (50 mM Tris-HCl pH 7.5, 20 mM NaCl, 5% glycerol, 5 mM DTT with 0.1% BSA) at 4 °C overnight. The mixture was next incubated with 30 μL glutathione beads at 4 °C with constant rotation for 2–4 h. Subsequently, the bead/protein complex was washed three times, and eluted with 30 μL 2 × SDS sample buffer. The samples were then subjected to SDS-PAGE analysis. The experiment was repeated three times.

For `Cc1coc2c1C(=O)C(=O)c1c-2ccc2c(C)cccc12` [Tanshinone I], the Kd (AlaRS^N71Y) was 37.8 ± 6.2 µM and the “Mean density band (N71Y), relative quantification of AlaRS mutant pulled down” value [1] was 0.82.
